In US12582632B2, “Inhibition of neurological injuries due to infections via administration of Butanetap and analogs thereof” (priority 2021, dated 2026):

How the values were obtained:
[1] = cited from earlier work
[2] = test system: neuroblastoma cells (SH-SY5Y); assay: Gingipain-induced cell aggregation; assay type: cell-based; settings: 24 hours RgpB (10 ug/ml), Kgp (10 ug/ml), or both, FIG. 11
[3] = test system: APP in SH-SY-5Y human neuroblastoma cells; assay: APP in vitro, Western blot; assay type: cell-based; settings: 0, 0.1, 1, 5 and 10 μM, FIG. 1
[4] = test system: neurotoxic aggregating proteins; assay: Neurotoxic aggregating proteins in cerebral cortex of transgenic AD and PD animals
[5] = test system: Tau in transgenic neo-natal human Tau mice cells; assay: Tau in vitro; assay type: cell-based; settings: cells treated for 4 days, antibodies against Tau and phospho-Tau, FIG. 3
Procedure: The cells were treated for 4 days with butanetap harvested, solubilized, and tested with antibodies against Tau and phospho-Tau. • B. FIG. 4, Tau in vivo. […] After 6 weeks, mice were killed and the total and insoluble (aggregated) tau was measured. […] Precipitated tau corresponds to tangles in the brain.

[6] = test system: Ts65dn mouse model of Down syndrome (DS); assay: Ts65dn mouse model of Down syndrome; assay type: in vivo; settings: Ts65dn mice
Description: (§1) Butanetap's efficacy in treating neurodegeneration in animal models: Restored memory and learning in an APP/PS1 transgenic (tg) mouse model of AD; Restored memory and learning in a Ts65dn mouse model of Down syndrome (DS) [W. Mobley, UCSD, submitted 2020]; Preserved the retina in acute glaucoma [J Sundstrom; Hershey Medical School]; Restored colonic motility in a human SNCAA53T tg mouse model of PD (Kuo et. al., Am J Neurodegener Dis 2019; 8(1):1-15 www.AJND.us/ISSN:216 591X/AJND0086080: Translational inhibition of α-synuclein by Butanetap (Posiphen) normalizes distal colon motility in transgenic Parkinson mice); Preserved memory and learning in traumatic brain injury rats (M-F Chesselet, submitted 2020).

[7] = test system: APP/PS1 transgenic (tg) mouse model of AD; assay: APP/PS1 transgenic mouse model of AD, memory, learning and synaptic transmission; assay type: in vivo
Description: as §1
(§2) Butanetap's reversal of the neurotoxic cascade: Butanetap's mechanism of action is related to APP, Tau, and aSYN expression being regulated by RP1 and by iron and the way these proteins contribute to neurodegeneration by accumulating as toxic aggregates that impair axonal transport and synaptic transmission, causing inflammation, and, finally, leading to nerve cell death (as described previously).

[8] = test system: neurotoxic aggregating proteins; assay: Translation of neurotoxic aggregating proteins in healthy mouse brain; assay type: in vivo
Description: (§3) Therefore, the original data concerning the effects of butanetap working under all conditions is wrong. (See, e.g., Lahiri, et al., “The Experimental Alzheimer's Disease Drug butanetap [(+)-Phenserine] Lowers Amyloid-β Peptide Levels in Cell Culture and Mice”, J. Pharmacol. Ther. 320:386-396, 2007 (hereby incorporated by reference)). It only works in stressed cells, dividing cells and sick cells, e.g., those cells that have high levels of iron.

[9] = Double Alzheimer/Parkinson phase 2 clinical trial; assay type: in vivo, human
Description: Three Phase I clinical studies have established butanetap's safety. […] Therefore, we conclude that a much lower single daily butanetap dose would be effective in the proposed study.

[10] = test system: traumatic brain injury rats; assay: Traumatic brain injury rats; assay type: in vivo, rat
Description: as §1, §2

[11] = Plasma and brain levels in humans, calculated and extrapolated from mice data
Description: The doses are provided in mg/kg; mg dose for a 70 kg human; plasma levels in mice and humans (ng/ml); plasma levels in humans (nM); brain levels in mice and humans (ng/gram); oral human efficacious and safe dose (mg/day); IP/P human efficacious and safe dose (mg/day); and IV human efficacious and safe dose (mg/day).

[12] = test system: immortalized Mouse Microglia (SIM-A9); assay: Gingipain cytotoxicity on microglia, AlamarBlue viability; assay type: cell-based; settings: 48 hours, between 1 and 10 nM
Procedure: Immortalized Mouse Astrocytes—SV40T (IMA2.1), immortalized Mouse Microglia (SIM-A9) and immortalized neuroblastoma (SH-SY5Y) cells were infected for 48 hours with gingipains HRgpA and RgpB (arginine gingipains), and Kgp (lysine-specific cysteine proteinase—Lys-gingipain, KGP). After 48 hours the cells were assessed for viability with the AlamarBlue assay and the percentage of dead or alive cells versus control was plotted. […] As expected, since neither are dying, […]. […] Therefore, we expect the efficacious buntanetap dose to fight P. gingivalis infection to be the same as to treat Alzheimer's and Parkinson's disease has no impact on the microglia or neuroblastoma survival in the presence of gingipains.

[13] = test system: neurotoxic aggregating proteins in stem cells (dividing cells); assay: Neurotoxic aggregating proteins in stem cells and derived neurons; assay type: cell-based
[14] = test system: fully differentiated healthy resting nerve cells; assay: Translation of neurotoxic aggregating proteins in differentiated nerve cells; assay type: cell-based
Description: as §3

[15] = dose 0.014 mg/kg, 1.0 mg for 70 kg
[16] = dose 0.07 mg/kg, 4.9 mg for 70 kg
[17] = dose 0.143 mg/kg, 10.0 mg for 70 kg
[18] = dose 0.16 mg/kg, 11.2 mg for 70 kg
[19] = dose 0.21 mg/kg, 14.7 mg for 70 kg
[20] = dose 0.23 mg/kg, 16.1 mg for 70 kg
[21] = dose 0.29 mg/kg, 20.3 mg for 70 kg
[22] = dose 0.34 mg/kg, 23.8 mg for 70 kg
[23] = dose 0.57 mg/kg, 39.9 mg for 70 kg
[24] = dose 1 mg/kg, 70.0 mg for 70 kg
[25] = dose 1.14 mg/kg, 79.8 mg for 70 kg
[26] = dose 1.71 mg/kg, 119.7 mg for 70 kg
[27] = dose 2.13 mg/kg, 149.1 mg for 70 kg
[28] = dose 2.29 mg/kg, 160.3 mg for 70 kg

SMILES: CN1CC[C@]2(C)c3cc(OC(=O)Nc4ccccc4)ccc3N(C)C12 (stereo partly drawn) [butanetap, (3aR)-1,3a,8-trimethyl-1,2,3,3a,8,8a-hexahydropyrrolo[2,3-b]indol-5-yl phenylcarbamate]
- tolerability ([1]; doses up to 4×60 mg daily×10 days): well tolerated
- terminal half-life ([1]; plasma, all doses): 4.3 to 4.7 h
- gingipain-induced cell aggregation [2]: blocks
- APP in relation to Actin standard [3]: lowers APP in vitro in a dose-dependent manner
- neurotoxic aggregating proteins [4]: not inhibit
- Tau expression [5]: reduces
- memory and learning [6]: Restored
- memory and learning ([7]; APP/PS1 tg mice): Restored
- impaired synaptic transmission ([7]; hippocampus of APP/PS1 tg mice): Normalized
- translation of neurotoxic aggregating proteins [8]: does not inhibit
- axonal and synaptic function ([9]; AD and PD patients): improved
- inflammatory markers ([9]; AD and PD patients): reduced
- neurotoxic protein biomarkers ([9]; AD and PD patients): reduced
- blood brain barrier crossing ([9]; AD and PD patients, once daily): crossed the blood brain barrier
- cognition as measured by ADAS-Cog11 and WAIS coding speed ([9]; AD patients, 80 mg QD, significant versus baseline, not versus placebo): improved
- motor function as measured by MDS-UPDRS (Part II, III, IV and total) ([9]; PD patients, 5, 10, 20, 40, 80 mg QD, maximum improvement for 10 & 20 mg): improved at all doses
- WAIS speed and accuracy ([9]; PD patients, significant versus placebo at 5, 20 and 80 mg): improved
- inflammation ([10]; rat brain after TBI): lowered
- impaired synaptic transmission ([10]; rat striatum after TBI): Normalized
- nerve cells ([10]; rat substantia nigra after TBI): protected
- memory and learning ([10]; traumatic brain injury rats): Preserved
- Brain levels in humans [11, 15]: 8 ng/gram
- Plasma levels in human [11, 15]: 1 ng/mL
- Plasma levels in humans [11, 15]: 3 nM
- Brain levels in humans [11, 16]: 16 ng/gram
- Plasma levels in human [11, 16]: 2 ng/mL
- Plasma levels in humans [11, 16]: 6 nM
- Brain levels in humans [11, 17]: 29.6 ng/gram
- Plasma levels in human [11, 17]: 3.7 ng/mL
- Plasma levels in humans [11, 17]: 10 nM
- Brain levels in humans [11, 18]: 45.6 ng/gram
- Plasma levels in human [11, 18]: 5.7 ng/mL
- Plasma levels in humans [11, 18]: 17 nM
- Brain levels in humans [11, 19]: 92 ng/gram
- Plasma levels in human [11, 19]: 11.5 ng/mL
- Plasma levels in humans [11, 19]: 32 nM
- Brain levels in humans [11, 20]: 103.2 ng/gram
- Plasma levels in human [11, 20]: 12.9 ng/mL
- Plasma levels in humans [11, 20]: 38 nM
- Brain levels in humans [11, 21]: 112 ng/gram
- Plasma levels in human [11, 21]: 14 ng/mL
- Plasma levels in humans [11, 21]: 41 nM
- Brain levels in humans [11, 22]: 160 ng/gram
- Plasma levels in human [11, 22]: 20 ng/mL
- Plasma levels in humans [11, 22]: 58 nM
- Brain levels in humans [11, 23]: 336 ng/gram
- Plasma levels in human [11, 23]: 42 ng/mL
- Plasma levels in humans [11, 23]: 123 nM
- Brain levels in humans [11, 24]: 720 ng/gram
- Plasma levels in human [11, 24]: 90 ng/mL
- Plasma levels in humans [11, 24]: 264 nM
- Brain levels in humans [11, 25]: 960 ng/gram
- Plasma levels in human [11, 25]: 120 ng/mL
- Plasma levels in humans [11, 25]: 352 nM
- Brain levels in humans [11, 26]: 1600 ng/gram
- Plasma levels in human [11, 26]: 200 ng/mL
- Brain levels in humans [11, 27]: 1920 ng/gram
- Plasma levels in human [11, 27]: 240 ng/mL
- Brain levels in humans [11, 28]: 3040 ng/gram
- Plasma levels in human [11, 28]: 380 ng/mL
- microglia survival in the presence of gingipains [12]: no impact
- neurotoxic aggregating proteins ([13]; differentiated neurons derived from the stem cells): not in the differentiated neurons
- neurotoxic aggregating proteins ([13]; stem cells (dividing cells)): inhibits
- translation of neurotoxic aggregating proteins [14]: does not inhibit
